Assay results from patent US8242118B2, “Arylsulfonamide derivatives for use as CCR3 antagonists in the treatment of inflammatory and immunological disorders” (Axikin Pharmaceuticals Inc., priority 2001, dated 2012).
Structures can show the parent of a compound that is named as a salt.

What follows are compounds tested against T1, Human CCR3 (Homo sapiens, UniProt P51677) (assay: Calcium mobilization assay, eotaxin-stimulated). Details: human CCR3-transformed K562 cells, 10 nM eotaxin; compounds of about 40 to 90% purity; read-out: Activity grade Ca2+ (IC50 class).
T1 construct: The cloned CCR3 cDNA was constructed with pcDNA3 vector and transfected into a IC562 cell line; expressed in transfected cells
T1 sequence (P51677 1-355): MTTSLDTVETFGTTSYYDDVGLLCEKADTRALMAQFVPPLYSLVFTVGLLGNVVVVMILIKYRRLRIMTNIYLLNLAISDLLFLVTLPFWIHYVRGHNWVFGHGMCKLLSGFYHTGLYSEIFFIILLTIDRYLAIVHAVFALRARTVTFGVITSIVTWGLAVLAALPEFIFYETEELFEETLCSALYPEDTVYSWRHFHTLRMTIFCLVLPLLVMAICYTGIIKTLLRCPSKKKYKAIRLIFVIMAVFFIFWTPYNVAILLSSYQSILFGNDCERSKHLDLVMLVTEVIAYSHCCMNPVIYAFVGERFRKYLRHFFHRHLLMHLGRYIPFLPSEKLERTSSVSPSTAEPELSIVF
Assay type: cell-based
Experimental: • Human CCR3-transformed K562 cells were used. The cloned CCR3 cDNA was constructed with pcDNA3 vector and transfected into a IC562 cell line. The human CCR3-transformed K562 cells were maintained in RPMI-1640 (Cat.#22400-089, Life Technologies) supplemented with 10% FCS (Cat.#A-1115-L, Hyclone), 55 μM 2-mercaptoethanol (Cat.#21985-023, Life Technologies), 1 mM sodium pyruvate (Cat.#11360-070, Life Technologies), 100 units/ml of penicillin G and 100 μg/ml of streptomycin (Cat.#15140-122, Life Technologies), and 0.4 mg/ml of Geneticin (Cat.#10131-035, Life Technologies)(hereinafter called “culture medium”). Before the receptor binding assay, cells were pretreated with 5 mM sodium butyrate (Cat.#193-01522, Wako)-containing the culture medium (2×10^5 cells/ml) for 20-24 hours to increase the expression of CCR3. (2) Receptor Binding Assay (RBA) • Butyrate-pretreated cells, suspended in binding buffer (25 mM HEPES pH 7.6, 1 mM CaCl2, 5 mM MgCl2, 0.5% BSA, 0.1% NaN3) at a cell density of 2×10^6 cells/ml, were added into 60 μl/well in the 96-well round bottom polypropylene plate (Cat.#3365, Costar). Compounds, diluted with the binding buffer (4-times higher concentration of the final concentration), were added into 30 μl/well in the polypropylene plate. [^125I]-labeled human eotaxin (Cat.#IM290, Amersham Pharmacia Biotech), diluted with the binding buffer at the concentration of 0.4 nM (final concentration; 0.1 nM), was added into 30 μl/well in the polypropylene plate. Total 120 μl/well of binding reaction mixture (60 μl/well of cell suspension, 30 μl/well of compound solution, and 30 μl/well of [^125I]-labeled eotaxin) were incubated in the polypropylene plate for 1 hour at room temperature after the incubation, 100 μl/well of the reaction mixture was transferred to a filtration plate (Cat.#MAFB-N0B, Millipore), and washed with the washing buffer (25 mM HEPES pH 7.6, 1 mM CaCl2, 5 mM MgCl2, 0.5% BSA, 0.1% NaN3, 0.5 M NaCl) twice. The 96-well filtration plate was pretreated with 100 μl/well of 0.5% polyethylenimine (Cat.#P-3143, Sigma) for 2-4 hours at room temperature and washed with the washing buffer twice before use. The non-specific binding was determined by parallel incubation in the presence of 500 nM of non-labeled eotaxin (Cat.#23209, Genzyme Techne). The radioactivities remained on the filter were measured by liquid scintillation counter (TopCount™, Packard) after an addition of 45 μl/well of scintillant (Microscint20, Cat.#6013621, Packard). The inhibition percent at each concentration of compound was calculated, and IC50 values were determined from the inhibition curve. [Determination of IC50 Values of Compounds in Calcium Mobilization Assay] (IC50 Ca2+) (1) Cell • Human CCR3-transformed K562 cells were used. The human CCR3-transformed K562 cells were maintained in RPMI-1640 supplemented with 10% FCS, 55 μM 2-mercaptoethanol (Cat.#21985-023, Life Technologies), 1 mM sodium pyruvate, 100 units/ml of penicillin G and 100 μg/ml of streptomycin and 0.4 mg/ml of Geneticin. Before the calcium mobilization assay, cells were pretreated with 5 mM sodium butyrate-containing the culture medium (2×10^5 cells/ml) for 20-24 hours to increase the expression of CCR3. (2) Calcium Mobilization Assay • Butyrate-pretreated cells were loaded with Fluo-3AM (Cat.#F-1242, Molecular Probes) in loading buffer (Hanks' solution Cat.#05906 Nissui, 20 mM HEPES pH 7.6, 0.1% BSA, 1 mM probenecid Cat.#P-8761 Sigma, 1 μM Fluo-3AM, 0.01% pluronic F-127 Cat.#P-6866 Molecular Probes) at a cell density of 1×10^7 cells/ml. Then, cells were washed with calcium assay buffer (Hanks' solution Cat.#05906 Nissui, 20 mM HEPES pH 7.6, 0.1% BSA, 1 mM Probenecid Cat.#P-8761 Sigma). The cell suspension (3.3×10^6 cells/ml) was added into 60 μl/well in the 96-well clear bottom black plate (Cat.#3904, Costar). Compounds, diluted (5-times concentration of the final concentration) with the calcium assay buffer, were added into 20 μl/well in the plate 10 minutes before assay. […]

`NCCNS(=O)(=O)c1cc([N+](=O)[O-])ccc1Oc1cc(Cl)cc(Cl)c1` [Example 1-95] and `N#Cc1ccc(Oc2cc(Cl)cc(Cl)c2)c(S(=O)(=O)NCCN)c1` [Example 13-8] cannot be ordered by IC50: under 1 µM for the first, under 1 µM for the second.

`O=[N+]([O-])c1ccc(Nc2ccc(Cl)cc2)c(S(=O)(=O)N2CCNCC2)c1` [Example 3-8] and `O=[N+]([O-])c1ccc(Nc2ccc(F)cc2)c(S(=O)(=O)N2CCNCC2)c1` [Example 3-11] cannot be ordered by IC50: under 1 µM for the first, under 1 µM for the second.

`O=[N+]([O-])c1ccc(Nc2cccc(F)c2)c(S(=O)(=O)N2CCNCC2)c1` [Example 3-10] and `O=[N+]([O-])c1ccc(Nc2cccc(Cl)c2)c(S(=O)(=O)N2CCNCC2)c1` [Example 3-7] cannot be ordered by IC50: under 1 µM for the first, under 1 µM for the second.

`O=[N+]([O-])c1ccc(Oc2cc(Cl)cc(Cl)c2)c(S(=O)(=O)NCC2CCNCC2)c1` [Example 1-96] and `CC1CCCCN1CCCNS(=O)(=O)c1cc([N+](=O)[O-])ccc1Oc1cc(Cl)cc(Cl)c1` (stereo not drawn) [Example 4-40] cannot be ordered by IC50: under 1 µM for the first, under 1 µM for the second.

`Cc1cc(C)cc(Oc2cc([N+](=O)[O-])ccc2S(=O)(=O)N2CCNCC2)c1` [Example 23-1, 1-{2-(3,5-dimethylphenoxy)-4-nitrophenylsulfonyl}piperazine hydrochloride] and `Cc1cc(C)cc(N(C)c2ccc([N+](=O)[O-])cc2S(=O)(=O)N2CCNCC2)c1` [Example 21-2] cannot be ordered by IC50: under 1 µM for the first, under 1 µM for the second.

`Cc1cc(C)cc(Oc2ccc(-c3nnnn3CCC#N)cc2S(=O)(=O)N2CCNCC2)c1` [Example 22-3, 3-{5-[4-(3,5-dimethylphenoxy)-3-(1-piperazinylsulfonyl)phenyl]-1H-tetraazol-1-yl}propanenitrile hydrochloride] and `Cc1cc(C)cc(Oc2ccc(-c3nnn[nH]3)cc2S(=O)(=O)N2CCNCC2)c1` [Example 22-4, 1-{[2-(3,5-dimethylphenoxy)-5-(1H-tetraazol-5-yl)phenyl]sulfonyl}piperazine hydrochloride] cannot be ordered by IC50: under 1 µM for the first, under 1 µM for the second.

`Cc1cc(C)cc(Oc2ccc(C(=O)NCCC#N)cc2S(=O)(=O)N2CCNCC2)c1` [Example 22-1, N-(2-cyanoethyl)-4-(3,5-dimethylphenoxy)-3-(1-piperazinylsulfonyl)benzamide hydrochloride] and `Cc1cc(C)cc(Oc2ccc(C(=O)NCCC(N)=O)cc2S(=O)(=O)N2CCNCC2)c1` [Example 22-2, N-[4-(3,5-dimethylphenoxy)-3-(1-piperazinylsulfonyl)benzoyl]-beta-alanineamide hydrochloride] cannot be ordered by IC50: under 1 µM for the first, under 1 µM for the second.

`COc1ccccc1Nc1ccc([N+](=O)[O-])cc1S(=O)(=O)N1CCNCC1` [Example 3-12] and `O=[N+]([O-])c1ccc(Nc2ccccc2F)c(S(=O)(=O)N2CCNCC2)c1` [Example 3-9] cannot be ordered by IC50: under 1 µM for the first, under 1 µM for the second.

`Cc1cc(C)cc(Oc2ccc(C(=O)O)cc2S(=O)(=O)N2CCNCC2)c1` [Example 14-1, 4-(3,5-dimethylphenoxy)-3-(1-piperazinylsulfonyl)benzoic acid hydrochloride] and `Cc1cc(C)cc(Oc2ccc(C(N)=O)cc2S(=O)(=O)N2CCNCC2)c1` [Example 15-1, 4-(3,5-dimethylphenoxy)-3-(1-piperazinylsulfonyl)benzamide hydrochloride] cannot be ordered by IC50: under 1 µM for the first, under 1 µM for the second.

First: NC(=O)c1cc(F)c(Oc2cc(Cl)cc(Cl)c2)c(S(=O)(=O)N2CCNCC2)c1 [Example 15-4]
Second: O=C(O)c1ccc(Oc2cc(Cl)cc(Cl)c2)c(S(=O)(=O)N2CCNCC2)c1 [Example 14-3]
The IC50 of the first is higher: 1 to 10 µM for the first, under 1 µM for the second. The second is the more potent here.

`Cc1cc(C)cc(Oc2cc(Br)cc(S(=O)(=O)N3CCNCC3)c2)c1` [Example 24-1, 1-{[3-bromo-5-(3,5-dimethylphenoxy)phenyl]sulfonyl}piperazine hydrochloride] and `Cc1cc(C)cc(Oc2ccc(CO)cc2S(=O)(=O)N2CCNCC2)c1` [Example 16-1, [4-(3,5-dimethylphenoxy)-3-(1-piperazinylsulfonyl)phenyl]methanol hydrochloride] cannot be ordered by IC50: under 1 µM for the first, under 1 µM for the second.

First: Cc1cccc(Oc2ccc([N+](=O)[O-])cc2S(=O)(=O)N2CCNCC2)c1 [Example 1-24]
Second: COC(=O)c1cncc(Oc2ccc([N+](=O)[O-])cc2S(=O)(=O)N2CCNCC2)c1 [Example 1-53]
The IC50 of the first is lower: under 1 µM for the first, 1 to 10 µM for the second. The first is the more potent here.

`CN(C)CC(C)(C)CNS(=O)(=O)c1cc([N+](=O)[O-])ccc1Sc1cc(Cl)cc(Cl)c1` [Example 2-4] and `CN(C)CCCCNS(=O)(=O)c1cc([N+](=O)[O-])ccc1Oc1cc(Cl)cc(Cl)c1` [Example 4-39] cannot be ordered by IC50: under 1 µM for the first, under 1 µM for the second.

`Cc1cc(C)cc(Oc2cc(Cl)c(C#N)cc2S(=O)(=O)N2CCNCC2)c1` [Example 12-2] and `Cc1cc(C)cc(Oc2cc(Cl)c(C(N)=O)cc2S(=O)(=O)N2CCNCC2)c1` [Example 15-3] fall in the same range of IC50: 1 to 10 µM for the first, 1 to 10 µM for the second.

`N#Cc1cc(S(=O)(=O)N2CCNCC2)c(Oc2cc(Cl)cc(Cl)c2)cc1Cl` [Example 12-3] and `O=C(O)c1cc(S(=O)(=O)N2CCNCC2)c(Oc2cc(Cl)cc(Cl)c2)cc1Cl` [Example 14-4] fall in the same range of IC50: 1 to 10 µM for the first, 1 to 10 µM for the second.

`O=[N+]([O-])c1ccc(Sc2ccccc2)c(S(=O)(=O)N2CCNCC2)c1` [Example 2-14] and `N#Cc1ccc([S+]([O-])c2cc(Cl)cc(Cl)c2)c(S(=O)(=O)N2CCNCC2)c1` (stereo not drawn) [Example 19-1, 4-[(3,5-dichlorophenyl)sulfinyl]-3-(1-piperazinylsulfonyl)benzonitrile hydrochloride] fall in the same range of IC50: 1 to 10 µM for the first, 1 to 10 µM for the second.

First: COC(=O)c1ccc(Oc2cc(C)cc(C)c2)c(S(=O)(=O)N2CCNCC2)c1 [Example 15-2, methyl 4-(3,5-dimethylphenoxy)-3-(1-piperazinylsulfonyl)benzoate hydrochloride]
Second: CN(c1cc(Cl)cc(Cl)c1)c1ccc(C#N)cc1S(=O)(=O)N1CCNCC1 [Example 21-1, 4-[(3,5-dichlorophenyl)(methyl)amino]-3-(1-piperazinylsulfonyl)benzonitrile hydrochloride]
The IC50 of the first is lower: under 1 µM for the first, 1 to 10 µM for the second. The first is the more potent here.

`O=[N+]([O-])c1ccc(Oc2cc(Cl)cc(Cl)c2)c(S(=O)(=O)NCCN2CCCCC2)c1` [Example 4-41] and `N#Cc1ccc(Oc2cc(Cl)cc(Cl)c2)c(S(=O)(=O)N2CC[C@H](N)C2)c1` [Example 13-1, 1-{5-cyano-2-(3,5-dichlorophenoxy)phenylsulfonyl}-(3S)-aminopyrrolidine hydrochloride] cannot be ordered by IC50: under 1 µM for the first, under 1 µM for the second.
